According to ChEMBL document CHEMBL1146829, “Acetylene-based analogues of thiolactomycin, active against Mycobacterium tuberculosis mtFabH fatty acid condensing enzyme” (Bioorg Med Chem Lett, 2004):

Assay: Inhibitory activity against recombinant Mycobacterium tuberculosis beta-ketoacyl-Acyl Carrier Protein synthase mtFabH condensing enzyme

Structure (SMILES)	IC50
C#CCC1(C)SC(=O)C(C)=C1O (centres undefined)	100 µM
COC(=O)c1ccc(C#CCC2(C)SC(O)=C(C)C2=O)cc1 (centres undefined)	74 µM
CC(=O)c1ccc(C#CCC2(C)SC(O)=C(C)C2=O)cc1O (centres undefined)	7 µM
CC1=C(O)C(C)(CC#Cc2ccccc2C#N)SC1=O (centres undefined)	48 µM
CC1=C(O)C(C)(Cc2ccc(-c3ccc(COCc4ccccc4)cc3)cc2)SC1=O (centres undefined)	17 µM
CC1=C(O)C(C)(CC#Cc2ccc([N+](=O)[O-])cc2)SC1=O (centres undefined)	34 µM
CC1=C(O)C(C)(CC#Cc2ccc(C#N)cc2)SC1=O (centres undefined)	7 µM
CC(=O)c1ccc(C#CCC2(C)SC(O)=C(C)C2=O)cc1 (centres undefined)	4 µM
C=C/C(C)=C/[C@@]1(C)SC(=O)C(C)=C1O [THIOLACTOMYCIN]	74.9 µM
